Assay [1] addresses T1, human CCR2 (Homo sapiens, UniProt P41597).
T1 sequence (P41597 1-360 isoform P41597-2): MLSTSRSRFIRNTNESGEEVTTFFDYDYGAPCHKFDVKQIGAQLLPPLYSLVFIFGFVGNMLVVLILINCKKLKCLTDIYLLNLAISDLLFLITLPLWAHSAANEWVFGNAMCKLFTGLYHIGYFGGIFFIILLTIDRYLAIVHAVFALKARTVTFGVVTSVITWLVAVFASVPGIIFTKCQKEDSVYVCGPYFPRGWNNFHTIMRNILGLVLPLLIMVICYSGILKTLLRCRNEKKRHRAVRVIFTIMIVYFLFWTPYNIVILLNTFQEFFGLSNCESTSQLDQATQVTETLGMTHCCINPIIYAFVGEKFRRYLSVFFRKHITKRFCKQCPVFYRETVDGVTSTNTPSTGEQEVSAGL
Kind of assay: THP-1 binding (CCR2, 125I-human MCP-1 tracer). Details: THP-1 human monocytic leukemic cell line, which expresses endogenous CCR2; endogenous in cells; host or cells: THP-1 human monocytic leukemia cells. The following applies: metabolite examples; THP-1 cells, 125I-MCP-1. The procedure: The human CCR2 binding assay was also established with the THP-1 human monocytic leukemic cell line, which expresses endogenous CCR2, using 125I-human MCP-1 as the tracer ligand. Radioligand competition binding assays were used for assessment of binding affinity of test compounds to the CCR2 receptor. For radioligand competition studies, 100 μl containing 2.5×10^5 THP-1 cells/well (in assay buffer containing 50 mM HEPES, pH7.4, 5 mM MgCl2, 1 mM CaCl2 and 0.5% BSA) were added to 96-well assay plates containing test compound in 3-fold serial dilution, with final concentrations ranging from […]. Subsequently, 50 μl ^125I-MCP-1 radioligand at a final concentration of 0.2 nM in assay buffer were added to the reaction. After a 90 minute incubation period at room temperature, the binding reaction was terminated by harvesting on GF/B filter plates (PerkinElmer Cat. No. 6005177) followed by washing with ice-cold wash buffer (50 mM HEPES, pH 7.4, 0.1% BSA, 0.5 M NaCl) to remove unbound ligand. After washing, the plate was dried for 45 minutes at 60° C. followed by addition of 40 μl MicroScint 20 scintillation fluid, sealed and analyzed by the Packard TopCount reader. […] The competition data was plotted as a percentage inhibition of radioligand specific bound in the absence of test compound (percent of total signal). After correcting for non-specific binding, IC50 values were determined.

Assay [2] addresses T1, human CCR2. Kind of assay: Human peripheral blood mononuclear cell binding (CCR2 binding), 125I-human MCP-1 tracer. Details: hPBMCs were isolated from human leukopak (Biological Specialty Inc.); endogenous in cells; host or cells: human peripheral blood mononuclear cells from leukopak (Biological Specialty Inc.). The following applies: metabolite examples; hPBMCs, 125I-MCP-1; read-out: PBMC Binding IC50. As for the experimental part:
See also: Yoshimura et al., J. Immunol. 1990, 145, 292. The human CCR2 binding assay was established with human peripheral blood mononuclear cells (hPBMCs) using ^125I-human MCP-1 as the tracer ligand. hPBMCs were isolated from human leukopak (Biological Specialty Inc.) using a standard protocol with Ficoll-Hypaque (Mediatech Cellgro). Isolated hPBMCs were washed and diluted to 1×10^7/ml in binding buffer (RPMI-1640, 0.1% BSA, 20 mM Hepes, pH 7.4). ^125I-MCP-1 (NEN/Perk Elmer) was diluted to 0.45 nM in binding buffer. The compound was diluted in binding buffer at 3-fold the final concentrations used in the binding assay. The binding assay was performed using a 96-well filter plate (Millipore). Total ^125I-MCP-1 binding was assessed as follows: to each reaction of a total volume of 150 μl were added 5×10^5 cells, 0.15 nM […], and compound such that the final concentration ranged from 0 to 100 nM. The plate was incubated at room temperature for 30 minutes followed by three washes with RPMI-1640, 0.1% BSA, 0.4 M NaCl, 20 mM Hepes, pH 7.4 using a vacuum manifold filtration (Millipore). After washing, the plate was air-dried for 60 minutes at room temperature. This was followed by adding 25 μl of Microscint 20 into each well. The plate was sealed and counted on the Trilux for 1 minute. Non-specific binding was determined in the presence of 300 nM cold MCP-1 (PeproTech Inc.). Specific 1-MCP-1 was calculated as the difference between total and non-specific binding. All conditions were tested in duplicate.

As for `CC(=O)N[C@@H]1C[C@H](N)CC[C@@H]1N1CC[C@H](Nc2ncnc3ccc(C(F)(F)F)cc23)C1=O` [Example 4, N-((1R,2S,5R)-5-amino-2-((3S)-2-oxo-3-((6-(trifluoromethyl)-4-quinazolinyl)amino)-1-pyrrolidinyl)cyclohexyl)acetamide], the IC50 on human CCR2 [1] amounted to 4.22 ± 1.22 nM; at human CCR2 [2] it was 3.46 ± 1.1 nM.
`CC(=O)N[C@@H]1C[C@H](NC(C)(C)C)CC[C@@H]1N1CC[C@H](Nc2nc[n+]([O-])c3ccc(C(F)(F)F)cc23)C1=O` [Example 14, N-((1R,2S,5R)-5-(tert-butylamino)-2-((3S)-3-((1-oxido-6-(trifluoromethyl)-4-quinazolinyl)amino)-2-oxo-1-pyrrolidinyl)cyclohexyl)acetamide]: the half-maximal inhibitory concentration (IC50) on human CCR2 [1] is 19.9 nM; at human CCR2 [2] it was 14.9 ± 5.2 nM.
In the same order, the values of `CC(=O)N[C@@H]1C[C@H](N(C)C(C)C)CC[C@@H]1N1CC[C@H](Nc2nc[n+]([O-])c3ccc(C(F)(F)F)cc23)C1=O` [Example 5, N-((1R,2S,5R)-5-(isopropyl(methyl)amino)-2-((3S)-3-((1-oxido-6-(trifluoromethyl)-4-quinazolinyl)amino)-2-oxo-1-pyrrolidinyl)cyclohexyl)acetamide] are 21.3 nM and 27.5 ± 1.4 nM.

For the origin of these results see patent US7687508B2, “Cyclic derivatives as modulators of chemokine receptor activity” (Bristol-Myers Squibb Company, priority 2006, dated 2010).
